The target in experiment [1] is T1, human FXR ligand-binding domain (Homo sapiens, UniProt Q96RI1).
T1 construct: 6-HIS
T1 sequence (Q96RI1 242-472 isoform Q96RI1-2 limits assumed): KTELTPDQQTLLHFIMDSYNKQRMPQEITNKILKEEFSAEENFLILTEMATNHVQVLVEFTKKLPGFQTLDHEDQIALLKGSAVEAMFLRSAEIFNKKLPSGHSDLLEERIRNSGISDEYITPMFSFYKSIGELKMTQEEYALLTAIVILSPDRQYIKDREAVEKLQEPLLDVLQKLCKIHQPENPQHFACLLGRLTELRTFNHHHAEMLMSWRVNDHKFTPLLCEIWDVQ
T1 sequence (Q15788 600-774 partner limits assumed): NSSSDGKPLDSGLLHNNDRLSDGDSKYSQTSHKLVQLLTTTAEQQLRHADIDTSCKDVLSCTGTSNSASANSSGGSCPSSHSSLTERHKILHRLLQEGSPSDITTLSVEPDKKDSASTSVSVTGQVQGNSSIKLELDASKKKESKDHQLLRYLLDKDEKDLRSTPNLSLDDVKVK
The experiment is described as follows: FXR-SRC-1 Cofactor Recruitment Assay (Alpha Screen). In kind it is biochemical. As to conditions: SRC-1 FXR interaction, 4 hours at room temperature. As to the method:
FXR-SRC-1 Cofactor Recruitment Assay
Compounds are tested in concentration-response curves by an FXR-SRC-1 Cofactor Recruitment assay using the Alpha (Amplified Luminescent Proximity Homogeneous Assay) Screen technology according to the manufacturer instructions (Perkin Elmer). Briefly, purified 6-HIS-tagged human FXR ligand-binding domain (amino acids 242-472), purified GST-tagged human SRC-1 nuclear receptor-interacting domain (amino acids 220-394), Nickel Chelate donor beads (Perkin Elmer) and Anti-GST antibody acceptor beads (Perkin Elmer) are mixed together and 12 μL per well is aliquoted into 384 well plates. Add compounds in 3 μL per well for a total assay volume of 15 μL and incubate at room temperature in the dark for 4 hours. After incubation, compounds that bind FXR and induce the interaction between the FXR and SRC-1 would bring the two bead types into proximity generating luminescence that is quantified using a Packard Fusion instrument. Calculate EC50 values for each test compound. Compounds of the invention are found to be effective in the SRC-1 FXR interaction assay with EC50 of about 365-3000 nM.

Another experiment concerns LDLR−/− mice. The experiment is described as follows: LDLR−/− Serum Lipid Modulation. The experiment is classed as in vivo. The settings on record: 10 mg/kg once daily by oral gavage for seven days, male LDLR−/− mice on western diet. The method, then: LDLR−/− Serum Lipid Modulation
Acquire LDLR−/− mice from Jackson Laboratories (Stock number 002207, Bar Harbor, Me., USA). Acclimate animals for one week prior to study initiation. House mice individually in polycarbonate cages with filter tops, and maintain mice on a 12:12 hour light-dark cycle (lights on at 6:00 AM) at 21° C. Provide deionized water ad libitum and maintain for two weeks on ‘western diet’ TD 98137 Diet (42% fat, 0.15% cholesterol, Harlan Teklad) ad libitum. Optimize groups of five ten-week-old male LDLR−/− mice based on serum triglyceride and cholesterol levels. Dose groups once daily by oral gavage with various doses of the test compound for seven days. At the end of the seven-day dosing period, collect blood by tail clip for clinical chemistry assessment. Measure serum triglycerides, glucose, and total cholesterol using standard clinical chemistry instrumentation and reagents (Roche Diagnostic, Indianapolis, Ind., USA). Asphyxiate mice in a CO2 chamber. Perform cardiac puncture to collect blood samples for serum FPLC analysis. Assay pooled serum samples for lipoprotein cholesterol fraction values (VLDL, LDL, HDL) by separation on a size exclusion column (Superose® 6HR, Pharmacia Biotech AB, Uppsala, Sweden) with in-line determination of cholesterol.

pEC50: −log10 of the molar value.

Usually pEC50 stands for the EC50 on a negative log10 scale, so that one unit is a factor of ten. A low value points to a high EC50.

With `Cc1cc(OCc2c(-c3ccccc3OC(F)(F)F)noc2C2CC2)ccc1-c1ccc2c(C(=O)O)cn(C)c2c1` [Example 7, 6-{4-[5-Cyclopropyl-3-(2-trifluoromethoxy-phenyl)-isoxazol-4-ylmethoxy]-2-methyl-phenyl}-1-methyl-1H-indole-3-carboxylic acid], the pEC50 in experiment [1] was 5.89. In the experiment on LDLR−/− mice, this compound gave a lowers total cholesterol of 63% and a lowers triglycerides of 61%.
